The assay concerns the target S. aureus DNA gyrase (Staphylococcus aureus, UniProt P0A0K8+P20831). The assay is described as follows: DNA gyrase supercoiling inhibition assay. It counts as biochemical. The settings on record: read-out: IC50(μM) (mean ± SEM) / S. aureusDNA gyrase supercoiling.

IC50 data for 2 compounds are collected here from PMC11904721 (ACS Omega, 2025).

Structures are written as SMILES.

S. aureus DNA gyrase, sequence (P20831 whole entry): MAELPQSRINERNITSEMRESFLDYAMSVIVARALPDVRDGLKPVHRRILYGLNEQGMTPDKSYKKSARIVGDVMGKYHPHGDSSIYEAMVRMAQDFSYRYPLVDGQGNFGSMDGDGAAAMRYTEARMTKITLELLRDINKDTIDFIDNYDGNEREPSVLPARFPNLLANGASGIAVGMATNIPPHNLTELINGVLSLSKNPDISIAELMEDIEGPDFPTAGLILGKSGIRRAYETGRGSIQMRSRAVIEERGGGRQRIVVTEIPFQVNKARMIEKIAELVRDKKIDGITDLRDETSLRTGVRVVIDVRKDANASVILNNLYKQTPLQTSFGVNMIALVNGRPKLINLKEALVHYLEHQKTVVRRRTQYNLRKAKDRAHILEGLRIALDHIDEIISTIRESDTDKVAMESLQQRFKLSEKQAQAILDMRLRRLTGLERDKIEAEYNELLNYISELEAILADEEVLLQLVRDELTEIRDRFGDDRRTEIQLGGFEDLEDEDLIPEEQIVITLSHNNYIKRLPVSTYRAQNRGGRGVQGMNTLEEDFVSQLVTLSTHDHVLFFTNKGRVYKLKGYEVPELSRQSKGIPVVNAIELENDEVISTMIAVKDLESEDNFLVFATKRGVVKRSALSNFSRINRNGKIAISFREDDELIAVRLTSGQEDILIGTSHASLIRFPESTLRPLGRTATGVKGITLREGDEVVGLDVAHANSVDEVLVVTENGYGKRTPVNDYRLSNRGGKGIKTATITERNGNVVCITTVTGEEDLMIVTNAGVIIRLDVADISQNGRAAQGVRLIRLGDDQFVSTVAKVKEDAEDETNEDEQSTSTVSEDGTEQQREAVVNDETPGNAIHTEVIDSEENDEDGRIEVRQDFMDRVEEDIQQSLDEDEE
S. aureus DNA gyrase, sequence (P0A0K8 2-644): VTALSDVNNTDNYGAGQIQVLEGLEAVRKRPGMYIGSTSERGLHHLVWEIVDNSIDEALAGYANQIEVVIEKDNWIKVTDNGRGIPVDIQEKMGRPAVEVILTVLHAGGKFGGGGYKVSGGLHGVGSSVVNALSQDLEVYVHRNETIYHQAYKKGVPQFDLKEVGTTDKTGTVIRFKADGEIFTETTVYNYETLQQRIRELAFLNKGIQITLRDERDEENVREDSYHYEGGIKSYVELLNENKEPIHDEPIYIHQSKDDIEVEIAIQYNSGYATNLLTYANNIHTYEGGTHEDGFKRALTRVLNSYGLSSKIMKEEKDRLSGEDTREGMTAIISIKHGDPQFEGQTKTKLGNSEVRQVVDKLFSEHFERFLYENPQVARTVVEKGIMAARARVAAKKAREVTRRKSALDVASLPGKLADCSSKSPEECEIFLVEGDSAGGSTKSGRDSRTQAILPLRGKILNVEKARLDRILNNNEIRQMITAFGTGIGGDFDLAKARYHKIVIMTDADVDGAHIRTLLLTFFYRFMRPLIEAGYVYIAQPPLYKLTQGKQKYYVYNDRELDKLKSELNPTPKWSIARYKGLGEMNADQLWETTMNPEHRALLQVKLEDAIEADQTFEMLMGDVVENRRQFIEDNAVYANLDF

For `CCOC(=O)c1c(-n2cnnn2)sc2c1SC1N(c3ccccc3)C(=O)c3ccccc3N21` (centres unmarked) [compound 5, Ethyl 5-Oxo-6-phenyl-9-(1H-tetrazol-1-yl)-6,6a-dihydro-5H-thieno[2′,3′:4,5]thiazolo[3,2-a]quinazoline-8-carboxylate], the IC50 turned out to be 7.13 ± 0.28 µM. As for `CS(=O)(=O)N1SCC(=O)c2c1sc1c2SC2N(c3ccccc3)C(=O)c3ccccc3N12` (centres unmarked) [compound 4, 11-(methylsulfonyl)-6-phenyl-6,6a-dihydro-5H,9H-[1,2]thiazino[4″,3”:4′,5′]thieno[2′,3′:4,5]thiazolo[3,2-a]quinazoline-5,8(11H)-dione], the IC50 is 11.7 ± 0.47 µM.
